Patent US11464749B2, “Bismuth-thiol compositions and methods of use” (Microbion Corporation, priority 2018, dated 2022)

Assay: Particle size distribution of BisEDT samples vs processing conditions (Table 111)
Assay type: physicochemical
Conditions: BisEDT sample
Description: It was observed that careful control of the reaction temperature and the rate of 1,2 ethanedithiol addition had pronounced impact on the BisEDT particle size distribution.
To a 1-L jacketed reactor was charged USP water (480 mL, 48 vol), followed by 70% HNO3 (34 mL, 3.4 vol). A solution of bismuth subnitrate (10 g, 6.84 mmols) in water (43 mL, 4.3 vol) and 70% HNO3 (14 mL, 1.4 vol) was added at 20° C. The reaction mixture was cooled to 15° C. for addition of 95% Ethanol. The 95% ethanol (180 mL, 18 vol) was then added slowly. (Ethanol addition is exothermic, temperature reached 22° C.). The temperature was then adjusted back to 20° C. […] The reaction was stirred at 20° C. overnight. The reaction mixture was filtered through polypropylene cloth and washed with 95% ethanol (45 mL, 4.5 vol). The wet cake was charged back to the reactor and slurried in 95% ethanol (380 mL, 38 vol) for two hours at 20° C. The suspension was then filtered (same cloth) and washed with 95% ethanol (30 mL, 3 vol). The wet cake was again slurried in 95% EtOH (170 mL, 17 vol) at 20° C., filtered (same cloth), and washed with 95% ethanol (30 mL, 3 vol). The wet cake was then slurried in acetone (170 mL, 17 vol) at 20° C. overnight, followed by filtration (same cloth) and acetone wash (20 mL, 2 vol). The acetone (170 ml, 17 vol) treatment was repeated on the solids and stirred for 2 hours. The suspension was filtered (same cloth) and washed with acetone (30 mL, 3 vol) and died at 45° C. and dried at 45° C. (18 hours) to provide canary yellow solid (10.81 g 91.0%).
Representative synthesis of BisEDT at 15° C. with 1 hour addition of thiol via syringe pump, and polypropylene cloth for filtration: The synthesis BisEDT was performed on 10-g scale, temperature profile was studied with data logger. Ethane dithiol was added at 15° C. over 1 hour via syringe pump and the filtration was performed using PP filter cloth. To a 1-L jacketed reactor was charged USP water (480 mL, 48 vol) and cooled to 15° C., followed by 70% HNO3 (34 mL, 3.4 vol). A solution of bismuth subnitrate (10 g, […]) in water (43 mL, 4.3 vol) and 70% HNO3 (14 mL, 1.4 vol) was added at the same temperature. The 95% ethanol (180 mL, 18 vol) was then added slowly. […] It was then allowed to cool to 15° C. This was followed by dropwise addition of 1,2 ethanedithiol (4.3 mL, […] in 95% ethanol in 94 mL, 9.4 vol) over an hour with the batch temperature at 15° C. The reaction was allowed to stir at 15° C. overnight. The reaction mixture was filtered through polypropylene cloth and washed with 95% ethanol (45 mL, 4.5 vol). The wet cake was charged back to the reactor and slurried in 95% ethanol (380 mL, 38 vol) for two hours at 20° C. The suspension was then filtered (same cloth) and washed with 95% ethanol (30 mL, 3 vol). The wet cake was again slurried in 95% EtOH (170 mL, 17 vol) at 20° C., filtered (same cloth), and washed with 95% ethanol (30 mL, 3 vol). The wet cake was then slurried in acetone (170 mL, 17 vol) at 20° C. overnight, followed by filtration (same cloth) and acetone wash (20 mL, 2 vol). The acetone (170 ml, 17 vol) treatment was repeated on the solids and stirred for 2 hours. The suspension was filtered (same cloth) and washed with acetone (30 mL, 3 vol) and died at 45° C. and dried at 45° C. (18 hours) to provide canary yellow solid (10.43 g 87.8%).
In the case of `C1C[S][Bi]([S]CC[S][Bi]2[S]CC[S]2)[S]1.SCCS` [Sample 1], the “D (10)” value is reported as 0.80 μm, the “D (50)” value is reported as 2.4 μm and the “D (90)” value is reported as 5.9 μm. For the same compound, the “D [4,3]” value was 2.9 μm. With `C1C[S][Bi]([S]CC[S][Bi]2[S]CC[S]2)[S]1` [Sample 7] the “D (10)” value was 0.39 μm, the “D (50)” value was 1.3 μm and the “D (90)” value was 1.6 μm. For the same compound, the “D [4,3]” value was 1.4 μm. With `C1C[S][Bi]([S]CC[S][Bi]2[S]CC[S]2)[S]1` [Sample 14] the “D (10)” value was 0.36 μm, the “D (50)” value was 1.0 μm and the “D (90)” value was 2.1 μm. For the same compound, the “D [4,3]” value was 1.2 μm. With `C1C[S][Bi]([S]CC[S][Bi]2[S]CC[S]2)[S]1` [Sample 15] the “D (10)” value was 0.32 μm, the “D (50)” value was 0.72 μm and the “D (90)” value was 1.6 μm. For the same compound, the “D [4,3]” value was 0.86 μm. With `C1C[S][Bi]([S]CC[S][Bi]2[S]CC[S]2)[S]1.SCCS` [Sample 3] the “D (10)” value was 0.59 μm, the “D (50)” value was 1.9 μm and the “D (90)” value was 4.5 μm. For the same compound, the “D [4,3]” value was 2.3 μm. In the case of `C1C[S][Bi]([S]CC[S][Bi]2[S]CC[S]2)[S]1` [Sample 13], the “D (10)” value is reported as 0.36 μm, the “D (50)” value is reported as 0.98 μm and the “D (90)” value is reported as 2.1 μm. The “D [4,3]” value was 1.2 μm. With `C1C[S][Bi]([S]CC[S][Bi]2[S]CC[S]2)[S]1` [Sample 5] the “D (10)” value was 0.33 μm, the “D (50)” value was 0.72 μm and the “D (90)” value was 1.6 μm. For the same compound, the “D [4,3]” value was 0.86 μm. In the case of `C1C[S][Bi]([S]CC[S][Bi]2[S]CC[S]2)[S]1` [Sample 9], the “D (10)” value is reported as 0.67 μm, the “D (50)” value is reported as 1.0 μm and the “D (90)” value is reported as 1.9 μm. The “D [4,3]” value was 1.1 μm. With `C1C[S][Bi]([S]CC[S][Bi]2[S]CC[S]2)[S]1` [Sample 6] the “D (10)” value was 0.34 μm, the “D (50)” value was 0.87 μm and the “D (90)” value was 1.8 μm. The “D [4,3]” value was 0.98 μm. In the case of `C1C[S][Bi]([S]CC[S][Bi]2[S]CC[S]2)[S]1` [Sample 8], the “D (10)” value is reported as 0.36 μm, the “D (50)” value is reported as 1.0 μm and the “D (90)” value is reported as 1.8 μm. For the same compound, the “D [4,3]” value was 1.0 μm. In the case of `C1C[S][Bi]([S]CC[S][Bi]2[S]CC[S]2)[S]1` [Sample 4], the “D (10)” value is reported as 0.44 μm, the “D (50)” value is reported as 1.48 μm and the “D (90)” value is reported as 3.1 μm. The “D [4,3]” value was 1.7 μm. In the case of `C1C[S][Bi]([S]CC[S][Bi]2[S]CC[S]2)[S]1` [Sample 10], the “D (10)” value is reported as 0.36 μm, the “D (50)” value is reported as 0.88 μm and the “D (90)” value is reported as 1.7 μm. For the same compound, the “D [4,3]” value was 0.97 μm. In the case of `C1C[S][Bi]([S]CC[S][Bi]2[S]CC[S]2)[S]1` [Sample 2], the “D (10)” value is reported as 0.58 μm, the “D (50)” value is reported as 1.7 μm and the “D (90)” value is reported as 3.9 μm. The “D [4,3]” value was 2.0 μm. In the case of `C1C[S][Bi]([S]CC[S][Bi]2[S]CC[S]2)[S]1` [Sample 12], the “D (10)” value is reported as 0.37 μm, the “D (50)” value is reported as 1.2 μm and the “D (90)” value is reported as 2.4 μm. For the same compound, the “D [4,3]” value was 1.3 μm. For `C1C[S][Bi]([S]CC[S][Bi]2[S]CC[S]2)[S]1` [Sample 11], the “D (10)” value was 0.38 μm, the “D (50)” value was 1.2 μm and the “D (90)” value was 2.4 μm. The “D [4,3]” value was 1.4 μm.
